Read-outs that look alike come from different tables or passages of the source.
Legend:
fibrillar Aβ aggregates = fibrillar Aβ aggregates (Homo sapiens, UniProt P05067); conditions: read-out: inhibition constants (Ki) for binding to fibrillar Aβ aggregates; cited from earlier work
Amyloid Plaque [1] = molecular target: T1, Amyloid Plaque (Homo sapiens, UniProt P05067); assay: Inhibition of ^125I-IMPY binding in AD brain homogenates; conditions: read-out: Binding Affinity (Ki vs. ^125I-IMPY)
Experimental: Postmortem brain tissue was obtained and neuropathological diagnosis was confirmed in accordance with the NIA-Reagan Institute Consensus Group criteria. Homogenates were then prepared from dissected gray matter, pooled in phosphate buffered saline and aliquoted into 1-ml portions (100 mg wet tissue/ml), which could be stored at −70° C. for 3-6 months without loss of binding signal.
For the binding assays brain homogenates were incubated with ^125I-IMPY (0.04-0.06 nM diluted in phosphate buffered saline (PBS)) and test compound (10^−5-10^−10 M diluted in PBS containing 0.1% bovine serum albumin (BSA)). Nonspecific binding was defined in the presence of IMPY (600 nM). The bound and free radioactivity was separated by vacuum filtration followed by 2×3 ml washes of PBS. Filters containing the bound ^125I ligand were assayed in a gamma counter.

CNS receptors = assay: Selectivity against CNS receptors; conditions: cell wraps r7-r10: No high affinity binding to any CNS receptors
[2] = Organ distribution of ^123I-33 in normal mice; type: in vivo, ICR mice; conditions: i.v.; for Biodistribution Brain / % total counted / Biodistribution Pancreas / Biodistribution Pancrease: normal male mice
Experimental: Total activities of blood were calculated under the assumption that they were 7% of the total body weight.

Amyloid Plaque [3] = molecular target: T1, Amyloid Plaque; conditions: AD brain homogenates; read-out: Binding Affinity (Ki vs. ^125I-IMPY), published values; cited from earlier work
[4] = system: Aβ plaques in AD brain tissue homogenates; assay: Specific binding of radiolabeled ligands to AD and control brain tissue homogenates; set-up: species or system human; conditions: for specific binding, gray matter homogenates of AD / specific binding, white matter homogenates of AD brain: 0.06 nM [^125I]probe, 0.5 nM [^18F]probe
Experimental: FIG. 6 depicts specific binding of preferred embodiments of the present invention to pooled AD and control brain tissue homogenates. Gray and white matters were dissected from the cortical regions. Higher specific binding was detected mainly in gray matter of AD. Relatively low binding was measured in white matter homogenates of AD as well as in gray and white matter homogenates of the control brain.
AD postmortem brain tissues were obtained from University of Washington Alzheimer's Disease Research Center. The neuropathological diagnosis was confirmed by current criteria (NIA-Reagan Institute Consensus Group, 1997). Homogenates were then prepared from dissected gray matters from four pooled AD patients in phosphate buffered saline (PBS, pH 7.4) at the concentration of approximately 100 mg wet tissue/ml (motor-driven glass homogenizer with setting of 6 for 30 sec). The homogenates were aliquoted into 1 mL-portions and stored at −70° C. for up to 2 years without loss of binding signal.
Similarly, the specific binding of radioiodinated and radiofluorinated ligands (0.06 nM for [^125I]probe and 0.5 nM for [^18F]probe to homogenates, prepared from the gray and white matters of AD and control brain tissues, were carried out as described above. Nonspecific binding was determined in the presence of 2 μM of the corresponding nonradioactive probes.
To further characterize the specificity of plaque binding, we evaluated [^125I]10a and [^18F]17a by a direct in vitro binding assay using homogenates (from different brain regions) prepared from AD and control brain tissues.

[5] = system: Aβ plaques in AD brain sections; assay: In vitro film autoradiography of macroarray brain sections; type: binding, human
Source text: FIG. 5 depicts in vitro film autoradiography of macroarray brain sections constructed from AD and control cases. The Aβ plaques were clearly visualized with low background labeling with two preferred radiofluorinated probes of the present invention.
(§1) To compare different probes using similar sections of human brain tissue, human macro-array brain sections from 6 confirmed AD cases and one control subject were assembled. The presence and localization of plaques on the sections was confirmed with immunohistochemical staining with monoclonal Aβ antibody 4G8 (Sigma). The frozen sections were incubated with [^125I] and [^18F]tracers (200,000-250,000 cpm/200 μL) for 1 h at room temperature. The sections were then dipped in saturated lithium carbonate in 40% EtOH (two two-minute washes) and washed with 40% EtOH (one two-minute wash) followed by rinsing with water for 30 sec. After drying, the ^125I- or ^18F-labeled sections were exposed to Kodak Biomax MR film overnight.
[^18F]tracers: Brain sections from AD subjects were obtained by freezing the brain in powdered dry ice and cut into 20 micrometer-thick sections. The sections were incubated with [^18F]tracers (200,000-250,000 cpm/200 μl) for 1 hr at room temperature. The sections were then dipped in saturated Li2CO3 in 40% EtOH (two two-minute washes) and washed with 40% EtOH (one two-minute wash) followed by rinsing with water for 30 sec. After drying, the ^18F-labeled sections were exposed to Kodak MR film overnight. The results are depicted in the film in FIG. 2.
as §1, with “[^125I]tracers: To” for “To”, “The” for “The frozen”, “[^125I]tracers” for “[^125I] and [^18F]tracers”, “Li2CO3” for “lithium carbonate”, “^125I-labeled” for “^125I- or ^18F-labeled”
A macro-array block was constructed using postmortem human brain samples consisting of seven confirmed AD cases. […] In vitro film autoradiography was carried out using these novel ^125I or ^18F labeled diphenyltriazole probes. […] The labeling pattern was consistent with that observed by immunohistochemical labeling with an antibody (4G8) specific for Aβ (data not shown).

[6] = Partition coefficient (1-octanol/buffer); type: physicochemical; conditions: 1-octanol / 0.1 M phosphate buffer pH 7.4
Experimental: Partition coefficients were measured by mixing the [^125I] or [^18F]tracer with 3 g each of 1-octanol and buffer (0.1 M phosphate, pH 7.4) in a test tube. The test tube was vortexed for 3 min at room temperature, followed by centrifugation for 5 min. Two weighed samples (0.5 g each) from the 1-octanol and buffer layers were counted in a well counter. The partition coefficient was determined by calculating the ratio of cpm/g of 1-octanol to that of buffer. Samples from the 1-octanol layer were re-partitioned until consistent partitions of coefficient values were obtained. The measurement was done in triplicate and repeated three times.
Partition coefficients were measured by mixing ^123I-33 with 3 g each of 1-octanol and buffer (0.1 M phosphate, pH 7.4) in a test tube. The test tube was vortexed for 3 min at room temperature, followed by centrifugation for 5 min. Two weighed samples (0.5 g each) from the 1-octanol and the buffer layer were counted in a well counter. The partition coefficient was determined by calculating the ratio of cpm/g of 1-octanol to that of the buffer. Samples from the 1-octanol layer were repartitioned until consistent partitions of,coefficient values were obtained from the third partition. The measurement was done in triplicate and repeated three times.

[7] = mouse; for brain washout index (brain2 min/brain30 min) / remaining in the brain: in vivo; for remaining in the brain: 2 h
Experimental: (§2) While under isoflurane anesthesia, 0.15 mL of a 0.1% bovine serum albumin solution containing [^125I] or [^18F]tracers (5-10 μCi) was injected directly into the tail vein of ICR mice (22-25 g, male). The mice (n=3 for each time point) were sacrificed by cervical dislocation at designated time-points post injection. The organs of interest were removed and weighed, and the radioactivity was counted with an automatic gamma counter. The percentage dose per organ was calculated by a comparison of the tissue counts to suitably diluted aliquots of the injected material. The total activity of the blood was calculated under the assumption that it is 7% of the total body weight. The % dose/g of samples was calculated by comparing the sample counts with the count of the diluted initial dose.

[8] = Organ distribution of [^125I] or [^18F]tracers in normal mice
Experimental: as §2

[9] = Estimate of human dosimetry extrapolated from the mouse data; conditions: proposed 5 mCi human dose
Experimental: When administered i.v. to male mice, ^123I-33 entered the brain quickly and reached a peak brain concentration of 3.7% dose/g within 2 min post administration and fell to 0.25% dose/g within 60 min. […] At the proposed 5 mCi human dose the lower large intestine is estimated to receive approximately 3.8 rem, while the upper large intestine is estimated to receive approximately 3.3 rem of exposure.

Aβ plaques = assay: Labeling of Aβ plaques in AD sections by ^123I-33 at tracer concentrations; type: binding, human

T1 sequence (P05067 672-711 limits assumed): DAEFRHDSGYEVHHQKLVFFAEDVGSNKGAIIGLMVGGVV
Sequence of fibrillar Aβ aggregates (P05067 672-711 limits assumed): as above

O=C(O)c1cc(/N=N/c2ccc(-c3ccc(/N=N/c4ccc(O)c(C(=O)O)c4)cc3)cc2)ccc1O [CG, chrysamine-G]
Ki (fibrillar Aβ aggregates): 370 nM

CN(C)c1ccc(-c2cn(-c3ccc(OCCO)c([123I])c3)nn2)cc1 [Compound 33, 2-(4-(4-(4-(dimethylamino)phenyl)-1H-1,2,3-triazol-1-yl)-2-iodophenoxy)ethanol]
Ki (Amyloid Plaque [1]): 7.5 ± 0.5 nM | Selectivity (CNS receptors): No high | Biodistribution Brain ([2]; 2 min): 3.69 ± 0.14 % dose/g | Biodistribution Brain ([2]; 60 min): 0.25 ± 0.03 % dose/g

CC(=C(C#N)C#N)c1ccc2cc(N(C)CCF)ccc2c1 [FDDNP, 2-(1-{6-[(2-fluoroethyl)(methyl)amino]-2-naphthyl}ethylidene)malononitrile]
Ki (Amyloid Plaque [3]): 239 nM

CN(C)c1ccc(-c2cn(-c3ccc(OCC[18F])cc3)nn2)cc1 [[^18F]17a]
specific binding signal, homogenates of control brain tissues (gray and white matters) [4]: low | specific binding, gray matter homogenates of AD [4]: detected predominantly in the gray matter homogenates of AD | specific binding, white matter homogenates of AD brain [4]: very low or nonexistent | Aβ plaque labeling [5]: most distinctive Aβ plaque-labeling | white matter (background) labeling [5]: minimal level of background in the white matter areas | log P [6]: 2.7 | bone uptake (in vivo defluorination) [7]: 4.64 % dose/g | brain washout index (brain2 min/brain30 min) [7]: 2.34 | remaining in the brain [7]: 1-2 % dose/g

CN(C)c1ccc(-c2cn(-c3ccc(OCCC[18F])cc3)nn2)cc1 [[^18F]17b]
Aβ plaque labeling [5]: most distinctive Aβ plaque-labeling | white matter (background) labeling [5]: minimal level of background in the white matter areas | log P [6]: 2.7 | bone uptake (in vivo defluorination) [7]: 18.59 % dose/g | brain washout index (brain2 min/brain30 min) [7]: 2.31 | remaining in the brain [7]: 1-2 % dose/g

CNc1ccc(-c2cn(-c3ccc([125I])cc3)nn2)cc1 [[^125I]10a]
specific binding signal, homogenates of control brain tissues (gray and white matters) [4]: low | specific binding, gray matter homogenates of AD [4]: detected predominantly in the gray matter homogenates of AD | specific binding, white matter homogenates of AD brain [4]: very low or nonexistent | white matter (background) labeling [5]: significant white matter labeling | log P [6]: 3.0 | brain washout index (brain2 min/brain30 min) [8]: 5.66

CN(C)c1ccc(-c2cn(-c3ccc([125I])cc3)nn2)cc1 [[^125I]10b]
log P [6]: 3.4 | brain washout index (brain2 min/brain30 min) [8]: 3.72

CN(C)c1ccc(-c2cn(-c3ccc(OCCO)c([123I])c3)nn2)cc1 [^123I-33, 2-(4-(4-(4-(dimethylamino)phenyl)-1H-1,2,3-triazol-1-yl)-2-[^123I]iodophenoxy)ethanol]
logD [6]: 3.25 | logP ([6]; 1-octanol/buffer (0.1 M phosphate)): 3.25 | % total counted ([2]; 2 min): 90.41 ± 5.38% | Biodistribution Pancreas ([2]; 2 min): 0.90 ± 0.12 % dose/organ | Biodistribution Pancrease ([2]; 2 min): 5.32 ± 0.08 % dose/g | % total counted ([2]; 60 min): 81.43 ± 5.66% | Biodistribution Pancreas ([2]; 60 min): 0.25 ± 0.11 % dose/organ | Biodistribution Pancrease ([2]; 60 min): 1.35 ± 0.52 % dose/g | % total counted ([2]; 120 min): 80.05 ± 6.33% | Biodistribution Pancreas ([2]; 120 min): 0.19 ± 0.09 % dose/organ | Biodistribution Pancrease ([2]; 120 min): 1.09 ± 0.46 % dose/g | % total counted ([2]; 180 min): 81.95 ± 4.47% | Biodistribution Pancreas ([2]; 180 min): 0.22 ± 0.03 % dose/organ | Biodistribution Pancrease ([2]; 180 min): 1.29 ± 0.14 % dose/g | brain penetration and clearance ([2]; normal mice): readily penetrated and was rapidly cleared from the brain | estimated exposure of lower large intestine [9]: approximately 3.8 rem | estimated exposure of upper large intestine [9]: approximately 3.3 rem | estimated human effective dose (ED) [9]: approximately 1.26 rem | labeling of Aβ plaques in sections from patients with pathologically confirmed AD (Aβ plaques): specifically labeled Aβ plaques
